Structures are written as SMILES.

Common to all, as to experiment: biochemical
Design in all cases: KINOMEscan competition binding panel (Eurofins DiscoverX), single concentration, % inhibition
Details in all cases: read-out: 7 at 1 µM % inhibition

One test has as its target RET(V804L) (Homo sapiens, UniProt P07949, V804L). Put shortly: (§1)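 Selectivity profile from a KINOMEscan run against >400 human kinases; test concentration 1 µM.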
The target of the next test is MYLK (Homo sapiens, UniProt Q15746). In a few lines: as §1
Another test concerns the target T1, PIP5K2B (Homo sapiens, UniProt P78356).
T1 construct: gene PIP4K2B
Put shortly: as §1

The next test concerns the target T2, PFTK1 (Homo sapiens, UniProt O94921).
T2 construct: gene CDK14
Put shortly:
as §1

Another test has as its target BUB1 (Homo sapiens, UniProt O43683). Put shortly:
as §1

In test [1] the target is T3, RPS6KA4(Kin.Dom.2-C-terminal) (Homo sapiens, UniProt O75676).
T3 construct: Kin.Dom.2-C-terminal
T3 sequence (O75676 whole entry): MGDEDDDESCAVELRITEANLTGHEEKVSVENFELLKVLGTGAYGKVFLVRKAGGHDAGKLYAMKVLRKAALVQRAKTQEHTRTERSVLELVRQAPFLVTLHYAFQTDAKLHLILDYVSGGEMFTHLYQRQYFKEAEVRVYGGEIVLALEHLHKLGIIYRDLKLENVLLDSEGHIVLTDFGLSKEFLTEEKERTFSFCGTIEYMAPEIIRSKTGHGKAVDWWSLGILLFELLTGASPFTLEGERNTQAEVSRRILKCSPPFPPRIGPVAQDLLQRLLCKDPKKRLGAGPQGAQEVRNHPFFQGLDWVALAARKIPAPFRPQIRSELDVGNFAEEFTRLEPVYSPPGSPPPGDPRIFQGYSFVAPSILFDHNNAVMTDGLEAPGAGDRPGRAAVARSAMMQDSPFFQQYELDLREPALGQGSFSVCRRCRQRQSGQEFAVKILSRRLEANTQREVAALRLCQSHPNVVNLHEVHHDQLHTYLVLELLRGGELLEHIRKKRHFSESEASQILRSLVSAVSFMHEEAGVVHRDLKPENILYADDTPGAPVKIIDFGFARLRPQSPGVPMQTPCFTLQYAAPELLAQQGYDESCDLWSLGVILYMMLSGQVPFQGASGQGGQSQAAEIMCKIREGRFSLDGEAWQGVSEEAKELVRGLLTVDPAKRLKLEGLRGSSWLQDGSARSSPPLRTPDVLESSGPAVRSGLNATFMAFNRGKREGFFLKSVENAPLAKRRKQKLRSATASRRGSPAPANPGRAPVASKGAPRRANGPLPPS
In a few lines:
as §1

In the next test the target is CAMK2B (Homo sapiens, UniProt Q13554). Put shortly:
as §1

A further test has as its target SRPK1 (Homo sapiens, UniProt Q96SB4). Put shortly: as §1
Test [2] deals with T4, RSK2(Kin.Dom.1-N-terminal) (Homo sapiens, UniProt P51812).
T4 construct: gene RPS6KA3; Kin.Dom.1-N-terminal
Put shortly:
as §1

The target in a further test is EIF2AK1 (Homo sapiens, UniProt Q9BQI3). Put shortly:
as §1

In a further test the target is T5, MLCK (Homo sapiens, UniProt Q32MK0).
T5 construct: gene MYLK3
T5 sequence (Q32MK0 whole entry): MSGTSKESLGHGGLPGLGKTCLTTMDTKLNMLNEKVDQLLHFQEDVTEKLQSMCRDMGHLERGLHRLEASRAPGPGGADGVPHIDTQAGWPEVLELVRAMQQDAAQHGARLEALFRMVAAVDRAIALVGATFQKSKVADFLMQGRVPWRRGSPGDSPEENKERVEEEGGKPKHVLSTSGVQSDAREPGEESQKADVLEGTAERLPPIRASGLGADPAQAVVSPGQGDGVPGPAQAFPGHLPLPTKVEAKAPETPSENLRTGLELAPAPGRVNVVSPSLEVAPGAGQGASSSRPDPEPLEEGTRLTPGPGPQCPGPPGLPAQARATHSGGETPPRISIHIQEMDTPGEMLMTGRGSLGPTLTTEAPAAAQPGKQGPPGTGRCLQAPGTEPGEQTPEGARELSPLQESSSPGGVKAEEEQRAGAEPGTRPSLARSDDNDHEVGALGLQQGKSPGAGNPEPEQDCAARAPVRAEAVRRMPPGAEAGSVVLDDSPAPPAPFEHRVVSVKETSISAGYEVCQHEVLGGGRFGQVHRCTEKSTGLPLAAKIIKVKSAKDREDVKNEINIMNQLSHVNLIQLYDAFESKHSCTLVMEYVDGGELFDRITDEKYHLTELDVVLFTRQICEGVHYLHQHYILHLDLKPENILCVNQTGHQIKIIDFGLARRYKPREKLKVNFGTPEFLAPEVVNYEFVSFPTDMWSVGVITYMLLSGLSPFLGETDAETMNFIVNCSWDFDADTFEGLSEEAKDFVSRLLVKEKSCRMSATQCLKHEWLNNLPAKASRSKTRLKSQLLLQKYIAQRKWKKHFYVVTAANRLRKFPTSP
In a few lines: as §1

A further test deals with T6, ERK4 (Homo sapiens, UniProt P31152).
T6 construct: gene MAPK4
In a few lines: as §1

The target in another test is T7, SGK (Homo sapiens, UniProt O00141).
T7 construct: gene SGK1
Put shortly:
as §1

For test [3], the target named is T8, ABL1(Q252H)-nonphosphorylated (Homo sapiens, UniProt P00519, Q252H).
T8 construct: nonphosphorylated
In a few lines:
as §1

The next test deals with FLT1 (Homo sapiens, UniProt P17948). Put shortly:
as §1

In a further test the target is FLT3(D835H) (Homo sapiens, UniProt P36888, D835H). In a few lines: as §1
A further test has as its target RIOK3 (Homo sapiens, UniProt O14730). Put shortly: as §1
The next test addresses INSRR (Homo sapiens, UniProt P14616). In a few lines: as §1
The next test deals with SRC (Homo sapiens, UniProt P12931). Put shortly: as §1
Chain of SRC (P12931 whole entry): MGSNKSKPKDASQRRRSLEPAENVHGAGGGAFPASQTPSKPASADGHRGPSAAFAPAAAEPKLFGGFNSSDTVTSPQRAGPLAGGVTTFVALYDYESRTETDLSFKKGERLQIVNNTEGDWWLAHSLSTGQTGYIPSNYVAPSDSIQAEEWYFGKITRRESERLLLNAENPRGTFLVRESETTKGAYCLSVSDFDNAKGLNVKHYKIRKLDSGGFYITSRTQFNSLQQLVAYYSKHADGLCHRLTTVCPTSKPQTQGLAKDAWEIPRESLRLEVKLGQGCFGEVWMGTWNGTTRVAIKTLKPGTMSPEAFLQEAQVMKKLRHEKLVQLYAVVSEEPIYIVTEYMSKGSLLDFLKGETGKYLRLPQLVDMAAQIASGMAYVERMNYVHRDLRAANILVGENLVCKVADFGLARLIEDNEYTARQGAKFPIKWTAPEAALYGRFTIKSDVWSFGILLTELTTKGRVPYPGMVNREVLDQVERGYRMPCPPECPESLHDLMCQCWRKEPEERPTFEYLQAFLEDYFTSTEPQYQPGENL
For the next test, the target named is TYRO3 (Homo sapiens, UniProt Q06418). In a few lines:
as §1

The next test addresses T9, MEK6 (Homo sapiens, UniProt P52564).
T9 construct: gene MAP2K6
Put shortly: as §1

A further test addresses PAK6 (Homo sapiens, UniProt Q9NQU5). Put shortly:
as §1

A further test concerns the target PAK3 (Homo sapiens, UniProt O75914). In a few lines: as §1
The target in a further test is TSSK3 (Homo sapiens, UniProt Q96PN8). In a few lines: as §1

Chain of EIF2AK1 (Q9BQI3 whole entry): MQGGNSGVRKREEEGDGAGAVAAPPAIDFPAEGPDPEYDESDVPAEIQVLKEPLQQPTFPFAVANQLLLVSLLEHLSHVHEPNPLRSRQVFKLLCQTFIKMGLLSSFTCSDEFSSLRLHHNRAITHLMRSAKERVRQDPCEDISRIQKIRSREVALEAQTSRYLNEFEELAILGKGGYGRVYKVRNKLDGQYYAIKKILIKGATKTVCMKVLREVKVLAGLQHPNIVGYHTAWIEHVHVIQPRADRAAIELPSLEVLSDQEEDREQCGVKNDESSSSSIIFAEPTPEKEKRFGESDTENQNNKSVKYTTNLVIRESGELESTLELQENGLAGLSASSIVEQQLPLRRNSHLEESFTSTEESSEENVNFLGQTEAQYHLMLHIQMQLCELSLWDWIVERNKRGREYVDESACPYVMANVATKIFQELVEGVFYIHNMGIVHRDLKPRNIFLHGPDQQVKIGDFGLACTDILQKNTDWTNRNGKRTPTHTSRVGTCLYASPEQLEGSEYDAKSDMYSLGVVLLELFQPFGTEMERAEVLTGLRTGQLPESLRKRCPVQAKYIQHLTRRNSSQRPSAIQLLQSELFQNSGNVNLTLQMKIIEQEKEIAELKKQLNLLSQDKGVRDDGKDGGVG
Chain of TYRO3 (Q06418 whole entry): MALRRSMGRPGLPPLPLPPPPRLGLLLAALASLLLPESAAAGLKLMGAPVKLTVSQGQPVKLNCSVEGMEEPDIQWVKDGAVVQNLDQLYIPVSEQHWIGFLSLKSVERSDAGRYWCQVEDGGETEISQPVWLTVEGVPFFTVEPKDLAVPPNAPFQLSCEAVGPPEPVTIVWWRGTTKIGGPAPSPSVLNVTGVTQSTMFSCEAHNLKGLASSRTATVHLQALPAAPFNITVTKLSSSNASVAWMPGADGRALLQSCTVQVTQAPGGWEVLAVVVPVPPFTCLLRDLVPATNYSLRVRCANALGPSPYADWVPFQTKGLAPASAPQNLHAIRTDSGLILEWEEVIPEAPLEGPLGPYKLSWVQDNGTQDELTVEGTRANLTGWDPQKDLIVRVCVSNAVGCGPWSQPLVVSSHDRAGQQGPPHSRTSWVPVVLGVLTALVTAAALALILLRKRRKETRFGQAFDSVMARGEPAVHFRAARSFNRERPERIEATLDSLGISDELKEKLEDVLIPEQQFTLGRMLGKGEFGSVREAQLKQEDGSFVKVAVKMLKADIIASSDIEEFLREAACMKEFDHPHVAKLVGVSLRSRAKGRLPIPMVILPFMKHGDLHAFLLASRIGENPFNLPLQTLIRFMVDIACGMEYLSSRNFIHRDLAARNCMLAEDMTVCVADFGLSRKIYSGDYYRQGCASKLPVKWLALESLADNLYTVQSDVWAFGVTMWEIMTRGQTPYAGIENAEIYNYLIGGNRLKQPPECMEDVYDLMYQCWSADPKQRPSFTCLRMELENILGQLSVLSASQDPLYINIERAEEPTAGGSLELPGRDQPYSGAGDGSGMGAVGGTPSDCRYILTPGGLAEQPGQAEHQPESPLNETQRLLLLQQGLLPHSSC
Chain of FLT1 (P17948 whole entry): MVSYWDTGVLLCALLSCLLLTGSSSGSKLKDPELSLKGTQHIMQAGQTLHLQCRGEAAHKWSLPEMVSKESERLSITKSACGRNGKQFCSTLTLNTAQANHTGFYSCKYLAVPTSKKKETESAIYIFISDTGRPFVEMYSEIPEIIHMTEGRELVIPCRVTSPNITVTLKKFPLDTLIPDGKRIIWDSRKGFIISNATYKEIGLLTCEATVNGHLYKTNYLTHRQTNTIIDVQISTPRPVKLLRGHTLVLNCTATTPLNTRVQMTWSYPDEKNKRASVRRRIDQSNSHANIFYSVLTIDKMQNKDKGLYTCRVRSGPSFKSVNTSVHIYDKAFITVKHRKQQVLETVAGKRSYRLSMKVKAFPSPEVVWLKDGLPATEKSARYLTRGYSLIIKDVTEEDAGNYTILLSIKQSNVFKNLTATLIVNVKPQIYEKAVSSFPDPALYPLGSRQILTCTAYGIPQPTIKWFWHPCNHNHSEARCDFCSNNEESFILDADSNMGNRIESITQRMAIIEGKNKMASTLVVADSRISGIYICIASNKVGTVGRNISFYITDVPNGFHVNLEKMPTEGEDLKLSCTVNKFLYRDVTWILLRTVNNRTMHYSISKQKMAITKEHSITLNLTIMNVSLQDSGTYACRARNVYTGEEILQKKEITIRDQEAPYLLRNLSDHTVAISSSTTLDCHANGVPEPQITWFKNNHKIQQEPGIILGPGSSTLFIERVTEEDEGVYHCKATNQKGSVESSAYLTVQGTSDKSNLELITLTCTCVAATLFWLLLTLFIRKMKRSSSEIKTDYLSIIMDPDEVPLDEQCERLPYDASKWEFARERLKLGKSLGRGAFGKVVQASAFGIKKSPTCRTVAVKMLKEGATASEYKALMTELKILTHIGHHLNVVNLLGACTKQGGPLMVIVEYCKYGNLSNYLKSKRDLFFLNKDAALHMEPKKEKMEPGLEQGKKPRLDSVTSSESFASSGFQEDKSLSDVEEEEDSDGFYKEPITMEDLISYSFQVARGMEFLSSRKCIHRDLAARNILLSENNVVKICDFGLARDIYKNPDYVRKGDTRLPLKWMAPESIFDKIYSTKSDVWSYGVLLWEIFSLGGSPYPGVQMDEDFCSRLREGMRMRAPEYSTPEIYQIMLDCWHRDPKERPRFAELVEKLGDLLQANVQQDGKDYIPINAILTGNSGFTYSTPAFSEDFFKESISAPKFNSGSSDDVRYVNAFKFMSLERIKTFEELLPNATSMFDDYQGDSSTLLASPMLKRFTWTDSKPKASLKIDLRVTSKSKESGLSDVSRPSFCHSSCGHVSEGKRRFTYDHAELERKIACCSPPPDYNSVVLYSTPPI

The term inhibition denotes the change of the read-out against control, counted positive when it falls. As for `CNS(=O)(=O)c1ccc(N(C)C)c(Nc2ncnc3cc(OC)c(OC)cc23)c1` [compound 7, 3-((6,7-dimethoxyquinazolin-4-yl)amino)-4-(dimethylamino)-N-methylbenzenesulfonamide], the inhibition at 1 µM turned out to be 0% on RET(V804L); 9% on MYLK; 0% on PIP5K2B; 0% at PFTK1; 8% on BUB1; 9% in [1]. For the same compound, the inhibition at 1 µM at CAMK2B amounted to 11%; at SRPK1, 0%; in [2], 13%; at EIF2AK1, 0%; at MLCK it was 0%; on ERK4, 0%. The inhibition at 1 µM came out at 1% on SGK; 50% in [3]; 0% on FLT1; 20% at FLT3(D835H); 0% on RIOK3; 13% on INSRR. Besides, the inhibition at 1 µM is 0% on SRC; 0% at TYRO3; 0% on MEK6; 7% on PAK6; 54% at PAK3; 0% at TSSK3.
